# Test results as given in patent publication US8486916B2, “Medicine, food and drink or feed containing sphingomyelin” (Megmilk Snow Brand Co., Ltd., priority 2005, dated 2013).
# Tests used:
# [1] = system: carrageenin-induced edema; test: Carrageenin-induced footpad edema method; assay type: in vivo, Wistar rats; details: 100 mg/kg oral; 5 hours after λ-carrageenin injection
# Procedure: The anti-inflammatory effect of sphingomyelin was tested by a carrageenin-induced footpad edema method. Specifically, a test subject shown in Table 15 was suspended in an aqueous solution containing 0.5% carboxymethylcellulose and orally administered (100 mg/kg) to male Wistar rats (body weight: 110 to 130 g, 8 individuals per group) according to the method of Winter et al. (Proceedings of the Society for Experimental Biology & Medicine, vol. 111, pp. 554, 1962). […] An aqueous solution containing 0.5% carboxymethylcellulose and no test substance was administered to rats in a control group. A rate of increase in footpad volume (V0) attributed to the injection of λ-carrageenin was measured in the control group in the same way as above. An carrageenin-induced edema inhibition rate (%) was calculated according to the calculation formula: (V0−V1)×100/V0 and used as the anti-inflammatory activity of the test substance. A higher value of this inhibition rate indicates higher anti-inflammatory activity.
# cholera toxin = details: in vivo
# [2] = system: sialomucin content in the saliva; test: Effect of promoting sialomucin secretion: sialomucin content in rat saliva; assay type: in vivo, SD rats; details: 7th day of experimental diet containing 1% of the substance
# Procedure: Seven-week-old male SD rats (manufactured by Charles River Laboratories, Japan, Inc) were raised under conditions involving humidity of 60%, room temperature of 24° C., and light-dark (12 hour/12 hour) control. All the rats were preliminarily raised for 1 week with a standard diet and then divided into 3 groups each containing 12 individuals. These groups were allowed to freely take their respective experimental diets and raised for 1 week. Rat saliva was collected on the 7th day after the administration of experimental diets. A sialomucin content in the saliva was measured by high-performance liquid chromatography. […] In this context, a sialomucin content in the saliva was measured by the following method: 0.2 ml of a Nembutal solution was intramuscularly injected to rats fasted for 2 hours or longer. After anesthesia, a solution of pilocarpine hydrochloride serving as a saliva secretion promoter was intramuscularly injected thereto. […] A sialomucin content in the sialomucin fraction was quantified with a Sialic Acid Fluorescence Labeling Kit (Takara Bio Inc.). […] Free N-acetyl sialic acid or O-acetylated sialic acid was reacted at 55° C. for 2.5 hours by the addition of a DMB reagent as a fluorescence labeling agent and then quantified by high-performance liquid chromatography.
Compound,Inhibition rate [1] [%],Inhibition rate (cholera toxin) [%],Sialomucin content [2] [µg/µL]
COc1ccc2c(c1)c(CC(=O)O)c(C)n2C(=O)c1ccc(Cl)cc1 [Indomethacin],37.5,,
"CC(=O)N[C@H]1[C@H]([C@H](O)[C@H](O)CO)OC(O)(C(=O)O)C[C@@H]1O (stereo partly shown) [Sialic acid (derived from milk), Sialic acid]",38.1,,
"sialyllactose [SL, reference compound]",,37.9 ± 2.9,24.9 ± 3.1
